What was measured:
Mus musculus [1] = assay: Gastroprotective activity in Swiss albino mouse model of HCl/EtOH-induced lesion assessed as gastric lesion index at 70 mg/kg, po dosed 50 mins before HCl/EtOH challenge and measured 1 hr post HCl/EtOH challenge (reference value: 42 +/- 1.9 mm); format: functional, Stomach
Mus musculus [2] = assay: Gastroprotective activity in Swiss albino mouse model of HCl/EtOH-induced lesion assessed as gastric lesion index at 10 mg/kg, po dosed 50 mins before HCl/EtOH challenge and measured 1 hr post HCl/EtOH challenge (reference value: 42 +/- 1.9 mm); format: functional, Stomach
[3] = Cytotoxic activity against human fibroblasts assessed as reduction in cell viability incubated for 48 hrs by MTT assay; format: cell-based; settings: Fibroblast
Mus musculus [4] = assay: Gastroprotective activity in Swiss albino mouse model of HCl/EtOH-induced lesion pre-treated with 10 mg/kg prostaglandin synthesis inhibitor indomethacin assessed as gastric lesion index at 50 mg/kg, po dosed 50 mins before HCl/EtOH challenge and measured 1 hr post HCl/EtOH challenge (reference value: 12.1 +/- 2.5 mm); format: functional, Stomach
Mus musculus [5] = assay: (§1) Gastroprotective activity in Swiss albino mouse model of HCl/EtOH-induced lesion pre-treated with 10 mg/kg sulfhydryl inhibitor NEM assessed as gastric lesion index at 50 mg/kg, po dosed 50 mins before HCl/EtOH challenge and measured 1 hr post HCl/EtOH challenge (reference value: 12.1 +/- 2.5 mm); format: functional, Stomach
Mus musculus [6] = assay: Gastroprotective activity in Swiss albino mouse model of HCl/EtOH-induced lesion assessed as gastric lesion index at 50 mg/kg, po dosed 50 mins before HCl/EtOH challenge and measured 1 hr post HCl/EtOH challenge (reference value: 42 +/- 1.9 mm); format: functional, Stomach
Mus musculus [7] = assay: as §1, with “3.5” for “10”, “vanilloid receptor antagonist ruthenium red” for “sulfhydryl inhibitor NEM”; format: functional, Stomach
AGS = assay: Cytotoxic activity against human AGS cells assessed as reduction in cell viability incubated for 48 hrs by MTT assay; format: cell-based
Mus musculus [8] = assay: as §1, with “70” for “10”, “NO synthase” for “sulfhydryl”, “L-NAME” for “NEM”; format: functional, Stomach
Mus musculus [9] = assay: Gastroprotective activity in Swiss albino mouse model of HCl/EtOH-induced lesion assessed as inhibition of gastric lesions at 50 mg/kg, po dosed 50 mins before HCl/EtOH challenge and measured 1 hr post HCl/EtOH challenge; format: functional; settings: Stomach
Mus musculus [10] = assay: Gastroprotective activity in Swiss albino mouse model of HCl/EtOH-induced lesion assessed as gastric lesion index at 100 mg/kg, po dosed 50 mins before HCl/EtOH challenge and measured 1 hr post HCl/EtOH challenge (reference value: 42 +/- 1.9 mm); format: functional, Stomach
Mus musculus [11] = assay: Gastroprotective activity in Swiss albino mouse model of HCl/EtOH-induced lesion assessed as inhibition of gastric lesions at 20 mg/kg, po dosed 50 mins before HCl/EtOH challenge and measured 1 hr post HCl/EtOH challenge; format: functional; settings: Stomach
Mus musculus [12] = assay: Gastroprotective activity in Swiss albino mouse model of HCl/EtOH-induced lesion assessed as inhibition of gastric lesions at 12.5 to 100 mg/kg, po dosed 50 mins before HCl/EtOH challenge and measured 1 hr post HCl/EtOH challenge; format: functional; settings: Stomach
Mus musculus [13] = assay: Gastroprotective activity in Swiss albino mouse model of HCl/EtOH-induced lesion assessed as inhibition of gastric lesions at 100 mg/kg, po dosed 50 mins before HCl/EtOH challenge and measured 1 hr post HCl/EtOH challenge; format: functional; settings: Stomach

COC(=O)[C@@H](N)CCCNC(=N)N[N+](=O)[O-] [L-NAME]
Activity (Mus musculus [1]): 42.7 mm

CCN1C(=O)C=CC1=O [N-ETHYLMALEIMIDE]
Activity (Mus musculus [2]): 41.9 mm

C[C@]12C=C[C@@]3(CC[C@@H]4[C@@](C)(COC(=O)/C=C/c5cccc(Cl)c5)CCC[C@@]4(C)[C@@H]3CC1)C2
IC50 [3]: 15 µM
Activity (Mus musculus [4]): 38.9 mm
Activity (Mus musculus [5]): 15.2 mm
Activity (Mus musculus [6]): 12.1 mm
Activity (Mus musculus [7]): 17 mm
IC50 (AGS): 12 µM
Activity (Mus musculus [8]): 13.1 mm
inhibition in vivo at 50 mg/kg (Mus musculus [9]): 77%

CCCCCCCCCCCC(=O)OC[C@@]1(C)CCC[C@]2(C)[C@@H]1CC[C@@]13C=C[C@@](C)(CC[C@H]12)C3
IC50 [3]: 52 µM
IC50 (AGS): 33 µM
inhibition in vivo at 50 mg/kg (Mus musculus [9]): 51%

C[C@]12C=C[C@@]3(CC[C@@H]4[C@@](C)(COC(=O)/C=C/c5ccc(F)cc5)CCC[C@@]4(C)[C@@H]3CC1)C2
IC50 [3]: 69 µM
IC50 (AGS): 58 µM
inhibition in vivo at 50 mg/kg (Mus musculus [9]): 24%

COc1ccc(/C=C/C(=O)OC[C@@]2(C)CCC[C@]3(C)[C@@H]2CC[C@@]24C=C[C@@](C)(CC[C@H]23)C4)cc1
IC50 [3]: 378 µM
IC50 (AGS): 230 µM
inhibition in vivo at 50 mg/kg (Mus musculus [9]): 11%

CCCCCCCCCCCCCCCCCCCC(=O)OC[C@@]1(C)CCC[C@]2(C)[C@@H]1CC[C@@]13C=C[C@@](C)(CC[C@H]12)C3
IC50 [3]: 581 µM
IC50 (AGS): 321 µM
inhibition in vivo at 50 mg/kg (Mus musculus [9]): 34%

COc1ccccc1/C=C/C(=O)OC[C@@]1(C)CCC[C@]2(C)[C@@H]1CC[C@@]13C=C[C@@](C)(CC[C@H]12)C3
IC50 [3]: 311 µM
IC50 (AGS): 151 µM
inhibition in vivo at 50 mg/kg (Mus musculus [9]): 7%

C[C@]12C=C[C@@]3(CC[C@@H]4[C@@](C)(COC(=O)/C=C/c5ccc(Cl)cc5)CCC[C@@]4(C)[C@@H]3CC1)C2
IC50 [3]: 29 µM
IC50 (AGS): 18 µM
inhibition in vivo at 50 mg/kg (Mus musculus [9]): 42%

CCCCCCCCCCCCCCCC(=O)OC[C@@]1(C)CCC[C@]2(C)[C@@H]1CC[C@@]13C=C[C@@](C)(CC[C@H]12)C3
IC50 [3]: 88 µM
IC50 (AGS): 64 µM
inhibition in vivo at 50 mg/kg (Mus musculus [9]): 46%

CC1(C)[C@@H](OC(=O)CCC(=O)O)CC[C@]2(C)[C@H]3C(=O)C=C4[C@@H]5C[C@@](C)(C(=O)O)CC[C@]5(C)CC[C@@]4(C)[C@]3(C)CC[C@@H]12 [CARBENOXOLONE]
Activity (Mus musculus [10]): 13.1 mm

COc1cccc(/C=C/C(=O)OC[C@@]2(C)CCC[C@]3(C)[C@@H]2CC[C@@]24C=C[C@@](C)(CC[C@H]23)C4)c1
IC50 [3]: 289 µM
IC50 (AGS): 165 µM
inhibition in vivo at 50 mg/kg (Mus musculus [9]): 4%

C[C@]12C=C[C@@]3(CC[C@@H]4[C@@](C)(COC(=O)/C=C/c5ccccc5[N+](=O)[O-])CCC[C@@]4(C)[C@@H]3CC1)C2
IC50 [3]: 38 µM
IC50 (AGS): 25 µM
inhibition in vivo at 50 mg/kg (Mus musculus [9]): 14%

CCCCCCCCCC(=O)OC[C@@]1(C)CCC[C@]2(C)[C@@H]1CC[C@@]13C=C[C@@](C)(CC[C@H]12)C3
IC50 [3]: 33 µM
IC50 (AGS): 21 µM
inhibition in vivo at 50 mg/kg (Mus musculus [9]): 52%

C[C@]12C=C[C@@]3(CC[C@@H]4[C@@](C)(COC(=O)/C=C/c5ccccc5)CCC[C@@]4(C)[C@@H]3CC1)C2
IC50 [3]: 45 µM
IC50 (AGS): 30 µM
inhibition in vivo at 50 mg/kg (Mus musculus [9]): 68%

Cc1c(OCC(F)(F)F)ccnc1C[S+]([O-])c1nc2ccccc2[nH]1 (stereo not given) [LANSOPRAZOLE]
IC50 [3]: 291 µM
inhibition in vivo at 20 mg/kg (Mus musculus [11]): 57%
IC50 (AGS): 149 µM
inhibition in vivo at 50 mg/kg (Mus musculus [9]): 65%

C[C@]12C=C[C@@]3(CC[C@@H]4[C@@](C)(COC(=O)/C=C/c5ccc([N+](=O)[O-])cc5)CCC[C@@]4(C)[C@@H]3CC1)C2
IC50 [3]: 61 µM
IC50 (AGS): 35 µM
inhibition in vivo at 50 mg/kg (Mus musculus [9]): 0%

C[C@]12C=C[C@@]3(CC[C@@H]4[C@@](C)(COC(=O)/C=C/c5cccc([N+](=O)[O-])c5)CCC[C@@]4(C)[C@@H]3CC1)C2
IC50 [3]: 44 µM
IC50 (AGS): 29 µM
inhibition in vivo at 50 mg/kg (Mus musculus [9]): 2%

CCCCCCCCCCCCCC(=O)OC[C@@]1(C)CCC[C@]2(C)[C@@H]1CC[C@@]13C=C[C@@](C)(CC[C@H]12)C3
IC50 [3]: 61 µM
IC50 (AGS): 38 µM
inhibition in vivo at 50 mg/kg (Mus musculus [9]): 46%

Cc1ccc(/C=C/C(=O)OC[C@@]2(C)CCC[C@]3(C)[C@@H]2CC[C@@]24C=C[C@@](C)(CC[C@H]23)C4)cc1
IC50 [3]: 49 µM
IC50 (AGS): 39 µM
inhibition in vivo at 50 mg/kg (Mus musculus [9]): 8%

CCCCCCCCCCCCCCCCCC(=O)OC[C@@]1(C)CCC[C@]2(C)[C@@H]1CC[C@@]13C=C[C@@](C)(CC[C@H]12)C3
IC50 [3]: 359 µM
IC50 (AGS): 228 µM
inhibition in vivo at 50 mg/kg (Mus musculus [9]): 44%

COc1ccc2c(c1)c(CC(=O)O)c(C)n2C(=O)c1ccc(Cl)cc1 [INDOMETHACIN]
Activity (Mus musculus [2]): 39.9 mm

C[C@]12C=C[C@@]3(CC[C@@H]4[C@@](C)(CO)CCC[C@@]4(C)[C@@H]3CC1)C2
IC50 [3]: 31 µM
ED50 (Mus musculus [12]): 50 mg/kg
inhibition (Mus musculus [12]): Dose-dependent effect
inhibition in vivo at 100 mg/kg (Mus musculus [13]): 79%
IC50 (AGS): 19 µM
inhibition in vivo at 50 mg/kg (Mus musculus [9]): 53%
